Assay results reported in BindingDB's records for patent US10087191 (Jiangsu Hengrui Medicine, 2018).

Molecular target: T1, Estrogen receptor (Homo sapiens, UniProt P03372)
T1 sequence (P03372 whole entry): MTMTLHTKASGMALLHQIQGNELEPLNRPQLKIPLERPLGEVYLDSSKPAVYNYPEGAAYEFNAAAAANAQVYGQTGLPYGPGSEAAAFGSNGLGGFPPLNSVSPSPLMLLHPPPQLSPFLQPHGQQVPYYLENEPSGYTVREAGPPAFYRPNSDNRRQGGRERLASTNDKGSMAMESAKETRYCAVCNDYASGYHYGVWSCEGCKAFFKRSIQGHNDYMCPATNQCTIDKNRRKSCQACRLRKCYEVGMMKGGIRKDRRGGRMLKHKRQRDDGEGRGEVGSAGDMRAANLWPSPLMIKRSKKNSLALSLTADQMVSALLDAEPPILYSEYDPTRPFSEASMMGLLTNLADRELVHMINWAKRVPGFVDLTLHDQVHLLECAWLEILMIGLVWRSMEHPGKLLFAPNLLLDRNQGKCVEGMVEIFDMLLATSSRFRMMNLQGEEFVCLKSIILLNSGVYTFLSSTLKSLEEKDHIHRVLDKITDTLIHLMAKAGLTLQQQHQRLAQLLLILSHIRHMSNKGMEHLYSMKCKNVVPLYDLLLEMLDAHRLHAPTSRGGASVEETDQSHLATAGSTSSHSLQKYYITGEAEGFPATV
Experiment: Biological Assay

IC50 [nM]	Compound
2.11	CC1Cc2cc(-c3cnn(C(F)F)c3)ccc2C(c2c(F)cc(/C=C/C(=O)O)cc2F)N1CC(C)(C)F (stereo not given) [US10087191, Example 13]
1.17	CCn1cc(-c2cc3c(cc2F)C(c2c(F)cc(/C=C/C(=O)O)cc2F)N(CC(C)(C)F)C(C)C3)cn1 (stereo not given) [US10087191, Example 17]
1.52	CCCn1cc(-c2ccc3c(c2)CC(C)N(CC(C)(C)F)C3c2c(F)cc(/C=C/C(=O)O)cc2F)cn1 (stereo not given) [US10087191, Example 18]
27.3	CC1Cc2cc(-c3cnn(CCO)c3)ccc2C(c2c(F)cc(/C=C/C(=O)O)cc2F)N1CC(C)(C)F (stereo not given) [US10087191, Example 23]
19.8	CC1Cc2cc(-c3ccc(N)nc3)ccc2C(c2c(F)cc(/C=C/C(=O)O)cc2F)N1CC(C)(C)F (stereo not given) [US10087191, Example 27]
2.28	CC1Cc2cc(-c3cccnc3)ccc2C(c2c(F)cc(/C=C/C(=O)O)cc2F)N1CC(C)(C)F (stereo not given) [US10087191, Example 28]
11.4	CCc1nc(-c2ccc3c(c2)CC(C)N(CC(C)(C)F)C3c2c(F)cc(/C=C/C(=O)O)cc2F)no1 (stereo not given) [US10087191, Example 46]
3.4	Cc1ncc(-c2ccc3c(c2)CC(C)N(CC(C)(C)F)C3c2c(F)cc(/C=C/C(=O)O)cc2F)o1 (stereo not given) [US10087191, Example 49]
7.43	CC1Cc2cc(-c3nnn(C)n3)ccc2C(c2c(F)cc(/C=C/C(=O)O)cc2F)N1CC(C)(C)F (stereo not given) [US10087191, Example 51]
17.4	CC1Cc2cc(-c3ccc(-c4cnn(C)c4)nc3)ccc2C(c2c(F)cc(/C=C/C(=O)O)cc2F)N1CC(C)(C)F (stereo not given) [US10087191, Example 61]
2.97	CC1Cc2c(oc3c(F)cccc23)C(c2c(F)cc(/C=C/C(=O)O)cc2F)N1CC(C)(C)F (stereo not given) [US10087191, Example 84]
15	CC1Cc2c(oc3ccc(Br)cc23)C(c2c(F)cc(/C=C/C(=O)O)cc2F)N1CC(C)(C)F (stereo not given) [US10087191, Example 87]

Compound	IC50 [nM]
CC1Cc2cc3c(cc2C(c2c(F)cc(/C=C/C(=O)O)cc2F)N1CC(C)(C)F)OCO3 (stereo not given) [US10087191, Example 1]	0.77
CC1Cc2c(oc3ccccc23)C(c2c(F)cc(/C=C/C(=O)O)cc2F)N1CC(C)(C)F (stereo not given) [US10087191, Example 4]	0.73
CC1Cc2sc3ccccc3c2C(c2c(F)cc(/C=C/C(=O)O)cc2F)N1CC(C)(C)F (stereo not given) [US10087191, Example 6]	4.9
CC1Cc2cc(-c3cnn(C)c3)c(F)cc2C(c2c(F)cc(/C=C/C(=O)O)cc2F)N1CC(C)(C)F (stereo not given) [US10087191, Example 16]	1.36
CC1Cc2c(ccc3[nH]ncc23)C(c2c(F)cc(/C=C/C(=O)O)cc2F)N1CC(C)(C)F (stereo not given) [US10087191, Example 70]	0.77
CC1Cc2c(oc3cccc(F)c23)C(c2c(F)cc(/C=C/C(=O)O)cc2F)N1CC(C)(C)F (stereo not given) [US10087191, Example 73]	0.45
CCn1cc(-c2ccc3oc4c(c3c2)CC(C)N(CC(C)(C)F)C4c2c(F)cc(/C=C/C(=O)O)cc2F)cn1 (stereo not given) [US10087191, Example 76]	1.39
CC(C)CN1C(C)Cc2c(ccc3[nH]ncc23)C1c1c(F)cc(/C=C/C(=O)O)cc1F (stereo not given) [US10087191, Example 92]	0.43
